Here are results for one substance from US20110123483A1, “HMGB1 FOR CANCER TREATMENT” (DEUTSCHES KREBSFORSCHUNGSZENTRUM, priority 2009, published 2011).

For assay [1], the system named is U251MG xenograft tumors. The experiment in a line: Subcutaneous U251MG xenograft tumors in CD1 nude mice, systemic treatment. The assay is classed as in vivo. Here is the method: All animal work was carried out in accordance with the NIH guidelines Guide for the Care and Use of Laboratory Animals. Six-week-old male athymic CD1 nude mice (Charles River, n=8) were injected subcutaneously with 7.5×10^6 U251MG cells in 100 μl PBS in the right flank using a 30-gauge needle. After 3 weeks, treatment of the xenograft tumors was initiated with 10 μg rhHMGB1 in 500 μl PBS or PBS only (control group) by daily intraperitoneal injections at the contralateral side for 6 weeks. Tumor volume was measured by a calliper using the ellipsoid formula (length×width×height×½) as described (Tomayko and Reynolds, 1989). After 6 weeks of treatment the animals were sacrificed and the paraffin embedded tumor sections were subjected to immunofluorescence analysis as outlined below.
Paraffin embedded slices of mouse tissue or xenograft tumors were dewaxed and dehydrated using xylene and ethanol, followed by heat-induced antigen retrieval using 10 mM citrate buffer, pH 6.0, for 3×5 min in a cooker. The sections were incubated with 1:10 COX IV (Alexa Fluor® 488 conjugate) antibody over night at 4° C., washed with PBS and covered with Vectashield® mounting medium (H-1200, Vector Laboratories Inc., 94010 CA, USA) containing DAPI (1.5 μg/ml).

Assay [2] relates to mitochondrial proteome. The experiment in a line: 2-D gel electrophoresis / 2-D western blot of the mitochondrial proteome. Type of assay: cell-based, human. How it is done: Mitochondrial extracts of U251 MG cells precipitated according to the ProteoExtract Protein Precipitation Kit (Calbiochem) were pipetted into the sample cup of each strip holder. For large format 2-D-electrophoresis with silver staining and 2-D-western blots, isoelectric focusing (IEF) was performed as described previously (Schutt et al., 2002) using dry polyacrylamide gel strips (IPG, 24 cm) with an immobilized pH gradient pH 3-10 and the IPGphor1 Isolectric Focusing System (Amersham Pharmacia Biotech). IPG strips were rehydrated in reswelling buffer (7 M urea, 2 M thiourea, 2% (w/v) CHAPS, 65 mM dithiothreitol (DTT), 0.8% Pharmalite) overnight. The IEF protocol started at 500 V for 4 h, followed by an increase from 500 V to 4000 V for 10 h and finally 8000 V for 10 h. Equilibration buffer for IPG strips contained 75 mM Tris-HCl, pH 8.8, 2% SDS, 6 M urea, 29.3% glycerol and 0.002% (w/v) bromophenol blue solution, supplemented with 1.5% DDT for the first 15 min and with 2.5% (w/v) iodoacetamide for the following 15 min. For the second dimension the ETTAN Dalt six electrophoresis system was used. After draining the equilibration solution on filter paper the IPG strips were placed on the SDS gel; the electrical settings were 10 mA/gel, 80 V, 1 W/gel for 1 h, followed by 40 mA/gel, 500 V, 13 W/gel for 5-6 h. […]
Background: A western blot detects proteins with antibodies after separation by electrophoresis.

Turning to “rhHMGB1: recombinant human High Mobility Group B1 protein (Sigma Aldrich)”, in assay [1] (10 μg daily intraperitoneal, after six weeks (FIG. 1D)), the “tumor size versus control group” value is on record as “significantly smaller tumors than the control group”. Further, the “formation of megamitochondria in xenograft tumor tissue” value in assay [1] (after a 6 week systemic treatment (FIG. 9)) is “formation of megamitochondria was also observed”. Also, the “mitochondrial proteome, 2-D silver staining” value in assay [2] (80 nM, 24 h (FIG. 11B)) was “massive depletion of the isoelectric-neutral proteins”. Moreover, in assay [2] (alkaline range (FIG. 11C)), the “covalently bound malondialdehyde, 2-D western blot” value is given as “substantial increase in covalently bound malondialdehyde”.
